Experimental data reported in patent publication US20240383874A1, “BENZENE RING DERIVATIVE, AND COMPOSITION AND PHARMACEUTICAL USE THEREOF” (Xizang Haisco Pharmaceutical Co., Ltd., priority 2020, published 2024).
Where a name gives a salt, the structure may show the parent alone.

Key:
[1] = tested on: 22RV1 cells; experiment: Experiment 1 on inhibiting 22RV1 cell proliferation (5 days, CellTiter-Glo); assay type: cell-based; settings: 1% css-FBS phenol red-free medium, incubated with compound 5 days, read-out: IC50 values on proliferation inhibition of 22RV1 cells
Method: Prostate cancer cells 22RV1 were purchased from ATCC, the cell medium was RPMI 1640+10% FBS, and the cells were cultured in an incubator at 37° C. under 5% CO2. On day 1, the cells in an exponential phase were collected. With a 1% css-FBS phenol red-free medium, the cell suspension was adjusted to a corresponding concentration, plated at 2000 cells/well and incubated overnight. On day 2, compounds at different concentrations were added, and the plate was placed in the incubator and incubated for further 5 days. After the incubation was completed, according to operation instructions for a CellTiter-Glo kit (Promega, G7573), 50 μL of CTG solution, which was already pre-melted and equilibrated to room temperature, was added to each well, and the mixtures were uniformly mixed for 2 min using a microplate shaker. The plate was placed at room temperature for 10 min, and then fluorescence signal values were measured using a microplate reader (PHERAstar FSX). The results were processed according to formula (1), the survival rate of the compound at different concentrations was calculated, and the IC50 value of the compound with a survival rate of 50% was calculated using origin9.2 software with DoseResp function, wherein RLUcompound was the readout of the treated group, and RLUcontrol was the average value of the DMSO vehicle control group.

[2] = tested on: full-length AR (AR-FL); experiment: Degradation experiment on full-length AR (AR-FL) in 22RV1 cells; assay type: cell-based; settings: 24 h; for AR-FL Dmax % (maximum degradation rate): relative to vehicle control
Method: (§1) Prostate cancer cells 22RV1 were purchased from ATCC, the cell medium was 1640+10% FBS, and the cells were cultured in an incubator at 37° C. under 5% CO2. On day 1, the cells in an exponential phase were collected. With a 1% css-FBS phenol red-free medium, the cell suspension was adjusted to a corresponding concentration and plated into a 6-well plate at 1 mL/well and 100000 cells/well. The next day, a 1% css-FBS phenol-free medium containing the compound to be tested was added, a 1% css-FBS phenol-free medium containing 0.2% DMSO was added to one well as DMSO vehicle control, and the 6-well plate was cultured in an incubator at 37° C. under 5% CO2. After 24 h, the cells were digested with pancreatin and collected into a 1.5 mL centrifuge tube. 15 μL of RIPA lysate (containing 1×protease inhibitor cocktail) was added to each well, and the cells were lysed on ice for 15 min and then centrifuged at 12000 g and 4° C. for 10 min. The supernatant protein samples were collected, and protein quantification was performed by a BCA method. AR-FL and AR-Vs were detected using fully automatic protein expression quantitative analysis, which involved diluting the protein to be tested to 1 mg/mL. 4 μL of the diluted protein samples were added to 1 μL of 5×Master Mix (provided in the kit), and the prepared samples were denatured at 95° C. for 5 min and placed on ice for use. The primary antibodies, AR (CST, 5153S) and β-actin (CST, 3700), were diluted with Antibody Diluent II (provided in the kit) at a dilution ratio of 1:20 and 1:200, respectively. The secondary antibody was a mixed goat anti-mouse and goat anti-rabbit secondary antibody in a ratio of 1:1, and the color development solution was a mixed solution of Lumino-S and Peroxide in a ratio of 1:1. The prepared reagents were successively added to an assay plate according to instructions of the kit and detected on an instrument. Western blot band processing was performed using “Compass for SW”, a fully automatic protein expression quantitative analysis software, in which western blot bands were automatically simulated based on signal values. The degradation rate of AR-FL (3) or AR-Vs (4) relative to vehicle control at different compound concentrations was calculated according to formulas (3) and (4), wherein AR-FLcompound was the relative peak area of AR-FL in the treated group, and AR-FLsolvent was the relative peak area of AR-FL in the vehicle control group; AR-Vscompound was the relative peak area of AR-Vs in the treated group, and AR-Vssolvent was the relative peak area of AR-Vs in the vehicle control group.
(§2) DC50 calculation: the compound concentration DC50 values at which the degradation rate of AR-FL or AR-Vs was 50% were calculated using OriginPro2015 software and analyzed using DoseResp function according to formula (3) or (4).

[3] = tested on: 22RV1 cells; experiment: Experiment 2 on inhibiting 22RV1 cell proliferation (7 days, CellTiter-Glo); assay type: cell-based; settings: Homo sapiens, 22Rv1, 168 h, 1% css-FBS phenol red-free medium, incubated with compound 7 days, read-out: IC50 values on proliferation inhibition of 22RV1 cells
Outline: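 22RV1 cells plated at 2000/well in phenol red-free medium with 1% css-FBS and treated next day with compound for 7 days at 37 °C. Viability read by CellTiter-Glo luminescence relative to DMSO vehicle; IC50 from dose-response fit.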

[4] = tested on: AR splice variants (AR-Vs); experiment: Degradation experiment on AR splice variants (AR-Vs) in 22RV1 cells; assay type: cell-based; settings: 24 h; for AR-Vs Dmax % (maximum degradation rate): relative to vehicle control
Method: as §1, §2

[5] = Pharmacokinetic test in rats; assay type: in vivo; settings: rat, po; male SD rats, single dose i.g. 5 mg/kg, plasma, 0-24 h
Method: Test objective: in this test, a single dose of test compounds was administered to SD rats intragastrically, and the concentrations of the test compounds in plasma of the rats were measured to evaluate pharmacokinetic characteristics of the test compounds in the rats.
Test animals: male SD rats, 200-250 g, 6-8 weeks old, 3 rats/compound, purchased from Chengdu Dossy Experimental Animals Co., Ltd.
(§3) Test method: on the day of the test, 3 SD rats were randomly grouped according to their body weights. The animals were fasted with water available for 12 to 14 hours one day before the administration of a test compound, and were fed 4 hours after the administration.
Sampling: before and after the administration, 0.1 mL of blood was taken from the orbits of the rats under isoflurane anesthesia, and placed in an EDTAK2 centrifuge tube. Centrifugation was carried out at 5000 rpm at 4C for […], and the plasma was collected.
Time points for plasma collection in G1 group: 0, 5 min, 15 min, 30 min, 1 h, 2 h, 4 h, 6 h, 8 h, and 24 h.
Before analysis and detection, all samples were stored at −80° C. The samples were analyzed quantitatively by LC-MS/MS.

[6] = Pharmacokinetic test in beagle dogs; assay type: in vivo; settings: dog, plasma, oral; male beagle dogs, i.v. 1 mg/kg and i.g. 10 mg/kg, single dose
Method: Test objective: a single dose of test compounds was administered to beagle dogs intravenously and intragastrically, and the concentrations of the test compounds in plasma of the beagle dogs were measured to evaluate pharmacokinetic characteristics of the test compounds in the beagle dogs.
Test animals: male beagle dogs, about 8-11 kg, 6 beagle dogs/compound, purchased from Beijing Marshall Biotechnology Co., Ltd.
as §3, with “6 beagle dogs” for “3 SD rats”, “administration. The administration was performed according to Table 10.” for “administration.”
Sampling: before and after the administration, 1 ml of blood was taken from the limb veins, and placed in an EDTAK2 centrifuge tube. Centrifugation was carried out at 5000 rpm at 4° C. for 10 min, and the plasma was collected.
Time points for blood collection: 0 min, 5 min, 15 min, 30 min, 1 h, 2 h, 4 h, 6 h, 8 h, 10 h, 12 h and 24 h. Before analysis and detection, all samples were stored at −80° C. The samples were analyzed quantitatively by LC-MS/MS.

[7] = degradation rate 50% relative to vehicle control

| IC50 [1] [nM] | IC50 [3] [nM] | AUC(0-t) [5] [ng·h/mL] | SMILES | other results |
| --- | --- | --- | --- | --- |
| 835 |  |  | O=C1CCC(N2C(=O)c3ccc(N4CCN(CC5CCN(S(=O)(=O)Nc6ccc(Cl)cc6C(=O)Nc6ccc(C(F)(F)F)cc6Cl)CC5)CC4)cc3C2=O)C(=O)N1 (stereo not drawn) [Compound 1, 5-chloro-N-(2-chloro-4-(trifluoromethyl)phenyl)-2-{[(4-[(4-(2-(2,6-dioxopiperidin-3-yl)-1,3-dioxo-2,3-dihydro-1H-isoindol-5-yl)piperazin-1-yl)methyl]piperidin-1-yl)sulfonyl]amino}benzamide] | IC50 ([1]; Homo sapiens, 22Rv1, 120 h): 500 to 1500 nM |
| 594 |  |  | O=C1CCC(N2C(=O)c3ccc(N4CC(N5CCN(S(=O)(=O)Nc6ccc(Cl)cc6-c6nc7cc(C(F)(F)F)cc(Cl)c7[nH]6)CC5)C4)cc3C2=O)C(=O)N1 (stereo not drawn) [Compound 2, N-(4-chloro-2-(7-chloro-5-(trifluoromethyl)-1H-1,3-benzodiazol-2-yl)phenyl)-4-(1-(2-(2,6-dioxopiperidin-3-yl)-1,3-dioxo-2,3-dihydro-1H-isoindol-5-yl)azetidin-3-yl)piperazine-1-sulfonamide] | IC50 ([1]; Homo sapiens, 22Rv1, 120 h): 500 to 1500 nM |
| 1240 |  |  | O=C1CCC(N2C(=O)c3ccc(N4CCC(CN5CCN(S(=O)(=O)Nc6ccc(Cl)cc6C(=O)Nc6ccc(C(F)(F)F)cc6Cl)CC5)CC4)cc3C2=O)C(=O)N1 (stereo not drawn) [Compound 3, 5-chloro-N-(2-chloro-4-(trifluoromethyl)phenyl)-2-((4-((1-(2-(2,6-dioxopiperidin-3-yl)-1,3-dioxoisoindolin-5-yl)piperidin-4-yl)methyl)piperazine)-1-sulfonamido)benzamide] |  |
|  | 899 | 740 ± 362 | Cn1c(=O)n(C2CCC(=O)NC2=O)c2ccc(N3CCC(C4CCN(CC5CCN(c6nccc(COc7ccc(C(C)(C)c8cc(Cl)cc(C#N)c8)cc7)n6)CC5)CC4)CC3)cc21 (stereo not drawn) [Compound 88 trifluoroacetate, 3-chloro-5-(2-(4-((2-(4-((1′-(1-(2,6-dioxopiperidin-3-yl)-3-methyl-2-oxo-2,3-dihydro-1H-benzo[d]imidazol-5-yl)-[4,4′-bipiperidin]-1-yl)methyl)piperidin-1-yl)pyrimidin-4-yl)methoxy)phenyl)propan-2-yl)benzonitrile] | AR-FL Dmax % (maximum degradation rate) [2]: 64%; AR-Vs Dmax % (maximum degradation rate) [4]: 73% |
|  | 678 | 1700 ± 335 | CCOc1c(Cl)cc(C(C)(C)c2ccc(OCc3ccnc(N4CCC(CN5CCC(C6CCN(c7ccc8c(c7)n(C)c(=O)n8C7CCC(=O)NC7=O)CC6)CC5)CC4)n3)cc2)cc1C#N (stereo not drawn) [Compound 94 trifluoroacetate, 3-chloro-5-(2-(4-((2-(4-((1′-(1-(2,6-dioxopiperidin-3-yl)-3-methyl-2-oxo-2,3-dihydro-1H-benzo[d]imidazol-5-yl)-[4,4′-bipiperidin]-1-yl)methyl)piperidin-1-yl)pyrimidin-4-yl)methoxy)phenyl)propan-2-yl)-2-ethoxybenzonitrile] | AR-FL Dmax % (maximum degradation rate) [2]: 84%; AR-Vs Dmax % (maximum degradation rate) [4]: 83% |
|  | 421 | 658 ± 133 | COc1c(Cl)cc(C(C)(C)c2ccc(OCc3ccnc(N4CCC(CN5CCC(C6CCN(c7ccc8c(c7)n(C)c(=O)n8C7CCC(=O)NC7=O)CC6)CC5)CC4)n3)cc2)cc1C#N (stereo not drawn) [Compound 97 trifluoroacetate, 3-chloro-5-(2-(4-((2-(4-((1′-(1-(2,6-dioxopiperidin-3-yl)-3-methyl-2-oxo-2,3-dihydro-1H-benzo[d]imidazol-5-yl)-[4,4′-bipiperidin]-1-yl)methyl)piperidin-1-yl)pyrimidin-4-yl)methoxy)phenyl)propan-2-yl)-2-methoxybenzonitrile (Compound 97) trifluoroacetate] | DC50 [2, 7]: 1180 nM; DC50 [4, 7]: 1070 nM |
|  |  |  | COc1c(Cl)cc(C(C)(C)c2ccc(OCc3ccnc(N4CCC(CN5CCC(C6CCN(c7ccc8c(c7)n(C)c(=O)n8C7CCC(=O)NC7=O)CC6)CC5)CC4)n3)cc2)cc1C#N (stereo not drawn) [Compound 97, 3-chloro-5-(2-(4-((2-(4-((1′-(1-(2,6-dioxopiperidin-3-yl)-3-methyl-2-oxo-2,3-dihydro-1H-benzo[d]imidazol-5-yl)-[4,4′-bipiperidin]-1-yl)methyl)piperidin-1-yl)pyrimidin-4-yl)methoxy)phenyl)propan-2-yl)-2-methoxybenzonitrile] | bioavailability [6]: > 15% |
